Key:
Type in all cases: functional
leukaemia cell line = assay: Compound was tested for 50% lethality in leukemia cancer cell lines; conditions: Homo sapiens, read-out: Log LC50 (the source's name) (converted)
[1] = system: Panel melanoma (Carcinoma cell lines); assay: Compound was tested for 50% lethality in Melanoma cancer cell lines; conditions: Homo sapiens, read-out: Log LC50 (the source's name) (converted)
[2] = system: Panel renal (Carcinoma cell lines); assay: Compound was tested for 50% lethality in Renal cancer cell lines; conditions: Homo sapiens, read-out: Log LC50 (the source's name) (converted)
[3] = system: Panel breast (Carcinoma cell lines); assay: Compound was tested for 50% lethality in Breast cancer cell lines; conditions: Homo sapiens, read-out: Log LC50 (the source's name) (converted)
[4] = system: Panel prostate (Carcinoma cell lines); assay: Compound was tested for 50% lethality in Prostate cancer cell lines; conditions: Homo sapiens, read-out: Log LC50 (converted)
[5] = system: Panel colon (Carcinoma cell lines); assay: Compound was tested for 50% lethality in Colon cancer cell lines; conditions: Homo sapiens, read-out: Log LC50 (the source's name) (converted)
[6] = system: Panel CNS (Carcinoma cell lines); assay: Compound was tested for 50% lethality in CNS cancer cell lines; conditions: Homo sapiens, read-out: Log LC50 (the source's name) (converted)
NSCLC = assay: Compound was tested for 50% lethality in Non-small-cell lung cancer cell lines; conditions: Homo sapiens, read-out: Log LC50 (the source's name) (converted)
[7] = system: Panel ovarian (Carcinoma cell lines); assay: Compound was tested for 50% lethality in Ovarian cancer cell lines; conditions: Homo sapiens, read-out: Log LC50 (the source's name) (converted)

Q: What does the source list for `CCN(CC)CCCOc1cc2c(cc1OC)C(=O)N1CCC[C@H]1C=N2`?
A: CC50 (leukaemia cell line): > 100 µM; CC50 [1]: 93.3 µM; CC50 [2]: > 100 µM; CC50 [3]: > 100 µM; CC50 [4]: > 100 µM; CC50 [5]: 87.1 µM; CC50 [6]: > 100 µM; CC50 (NSCLC): > 100 µM; CC50 [7]: > 100 µM

Q: Which results are given for `COc1cc2c(cc1OCCCN1CCN(C)CC1)N=C[C@@H]1CCCN1C2=O`?
A: CC50 (leukaemia cell line): 52.5 µM; CC50 [1]: 30.9 µM; CC50 [2]: 56.2 µM; CC50 [3]: 64.6 µM; CC50 [4]: > 100 µM; CC50 [5]: 55 µM; CC50 [6]: 64.6 µM; CC50 (NSCLC): 67.6 µM; CC50 [7]: 61.7 µM

Q: With `COc1cc2c(cc1OCCCN1CCOCC1)N=C[C@@H]1CCCN1C2=O` as the molecule, how does the CC50 (leukaemia cell line) read?
A: > 100 µM

Q: What about the CC50 [1] of the same molecule?
A: 87.1 µM

Q: And the CC50 [2]?
A: 97.7 µM

Q: What about the CC50 [3] of the same molecule?
A: 97.7 µM

Q: And the CC50 [4]?
A: > 100 µM

Q: And the CC50 [5]?
A: 66.1 µM

Q: What about the CC50 [6] of the same molecule?
A: 95.5 µM

Q: And the CC50 (NSCLC)?
A: 95.5 µM

Q: What about the CC50 [7] of the same molecule?
A: > 100 µM
